The target of test [1] is T1, Deoxyuridine triphosphatase (Trypanosoma cruzi (strain CL Brener), UniProt Q4DI50).
T1 sequence (Q4DI50 whole entry): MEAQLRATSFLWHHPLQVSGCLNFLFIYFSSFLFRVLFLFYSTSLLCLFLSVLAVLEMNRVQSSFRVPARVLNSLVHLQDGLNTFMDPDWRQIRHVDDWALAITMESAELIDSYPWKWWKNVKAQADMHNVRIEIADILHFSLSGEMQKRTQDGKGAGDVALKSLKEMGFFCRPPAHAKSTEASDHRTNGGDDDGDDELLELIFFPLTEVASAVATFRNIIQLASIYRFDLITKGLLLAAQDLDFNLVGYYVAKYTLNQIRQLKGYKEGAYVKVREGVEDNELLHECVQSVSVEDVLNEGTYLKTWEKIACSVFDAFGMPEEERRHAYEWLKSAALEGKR
In words: Inhibition of Trypanosoma cruzi dUTPase at 1 mM.

In another test the test system is L6. Briefly: Cytotoxicity against rat L6 cells. The test is classed as functional, cell-based.
In a further test the test system is Trypanosoma cruzi. In words: Antitrypanosomal activity against Trypanosoma cruzi. It counts as functional, organism-based.

Where only a bound is given, the exact number is not on record here.

As usually defined, the Ki is a measure of affinity in units of concentration, obtained from inhibition or displacement. The IC50 is the concentration that inhibits the measured activity by half. In the case of `C[C@H](NC(=O)Cn1ccc(=O)[nH]c1=O)C(=O)NCC(=O)O`, in test [1], the inhibition constant (Ki) is greater than 1 mM. Moreover, the values for the concentration for half-maximal inhibition (IC50) in the test on L6 and in the test with Trypanosoma cruzi were greater than 301 µM and greater than 100 µM, respectively.

Take `C[C@H](NC(=O)Cn1ccc(=O)[nH]c1=O)C(=O)N[C@@H](CC(=O)O)C(=O)O`: the inhibition constant Ki in test [1] is greater than 1 mM. The IC50 in the test on L6 is greater than 252 µM; with Trypanosoma cruzi, greater than 84 µM.

Consider `C[C@H](NC(=O)Cn1ccc(=O)[nH]c1=O)C(=O)N[C@@H](CCC(N)=O)C(=O)O`, for which, in test [1], the Ki is greater than 1 mM. Moreover, the figures for the IC50 in the test with L6 and in the test on Trypanosoma cruzi were greater than 243 µM and greater than 81 µM, respectively.

Consider `C[C@H](NC(=O)Cn1ccc(=O)[nH]c1=O)C(=O)N[C@H](C(=O)O)[C@@H](C)O`, for which the Ki in test [1] is greater than 1 mM. The results for the IC50 with L6 and in the test on Trypanosoma cruzi were greater than 262 µM and greater than 87 µM, respectively.

In test [1], `C[C@H](NC(=O)Cn1ccc(=O)[nH]c1=O)C(=O)N[C@@H](CCCCN)C(=O)O` yielded a Ki greater than 1 mM. For the same molecule, the figures for the IC50 in the test on L6 and in the test on Trypanosoma cruzi were greater than 243 µM and greater than 81 µM, respectively.

For the molecule `NCCCC[C@H](NC(=O)CNC(=O)Cn1ccc(=O)[nH]c1=O)C(=O)O`, the Ki in test [1] was greater than 1 mM. Moreover, the IC50 was greater than 253 µM with L6 and greater than 84 µM with Trypanosoma cruzi.

For `O=C(O)CNC(=O)Cn1ccc(=O)[nH]c1=O`, the Ki in test [1] is greater than 1 mM. In addition, the IC50 with L6 is greater than 396 µM; in the test with Trypanosoma cruzi it was greater than 132 µM.

`O=C(Cn1ccc(=O)[nH]c1=O)NCC(=O)N[C@@H](Cc1ccc(O)cc1)C(=O)O`: in test [1], the Ki was greater than 1 mM. Besides, the values for the IC50 in the test on L6 and in the test on Trypanosoma cruzi were greater than 230 µM and greater than 76 µM, respectively.

In test [1], `C[C@@H](O)[C@H](NC(=O)CNC(=O)Cn1ccc(=O)[nH]c1=O)C(=O)O` returned a Ki greater than 1 mM. Besides, the IC50 in the test with L6 is greater than 274 µM; in the test with Trypanosoma cruzi, greater than 91 µM.

Turning to `C[C@H](NC(=O)Cn1ccc(=O)[nH]c1=O)C(=O)N[C@@H](CCC(=O)O)C(=O)O`, in test [1], the Ki is greater than 1 mM. The values for the IC50 with L6 and in the test on Trypanosoma cruzi were 210 µM and greater than 81 µM, respectively.

The molecule `C[C@H](NC(=O)Cn1ccc(=O)[nH]c1=O)C(=O)N[C@@H](Cc1ccc(O)cc1)C(=O)O` displayed a Ki in test [1] greater than 1 mM. For the same molecule, the IC50 with L6 was 214 µM; with Trypanosoma cruzi, greater than 74 µM.

Turning to `O=C(Cn1ccnc1[N+](=O)[O-])NCc1ccccc1` [BENZNIDAZOLE], the IC50 in the test with Trypanosoma cruzi was found to be 1.04 µM. This lies in the single-digit micromolar range.

`O=c1ccn([C@H]2C[C@H](O)[C@@H](COP(=O)(O)O)O2)c(=O)[nH]1` [DEOXYURIDINE MONOPHOSPHATE] gave a Ki in test [1] of 0.0184 mM.

The molecule `COc1cc([C@@H]2c3cc4c(cc3[C@H](O)[C@H]3COC(=O)[C@H]23)OCO4)cc(OC)c1OC` [PODOFILOX] had an IC50 in the test on L6 of 0.15 µM.

These data come from ChEMBL document CHEMBL1137425, “Design, synthesis and evaluation of novel uracil amino acid conjugates for the inhibition of Trypanosoma cruzi dUTPase” (Bioorg Med Chem Lett, 2006).
